From patent US20230000842A1, “METHODS OF TREATING CARTILAGE DISORDERS THROUGH INHIBITION OF CLK AND DYRK” (SAMUMED, LLC, priority 2019, published 2023) come the findings set out here.

Experiment [1] has as its system Wnt pathway activity (SW480 colon carcinoma cells stably expressing the Sp5-Luc reporter). The experiment can be described thus: Wnt pathway activity screening assay (Sp5-Luc reporter gene assay). The note with it: Homo sapiens, SW480, Table 4; SW480 cells stably expressing Sp5-Luc reporter, 10-point dose-response from 10 μM, 36 to 48 hours.
In experiment [2] the test system is primary human mesenchymal stem cells (hMSCs). The experiment can be described thus: Chondrogenesis screening using primary human mesenchymal stem cells. In kind it is cell-based. The settings on record: Homo sapiens, Mesenchymal stem cells, hMSC chondrogenesis; for EC50: concentration required to induce 50% levels of chondrogenesis with TGF-β3 as positive control, read-out: Conc (nM) of 50% TGF-β3 activity; for Emax: maximum activity relative to TGF-β3 (10 ng/mL) positive control, read-out: Max. Activity as % TGF-β3 activity. The essentials:
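Primary hMSCs at passage 3–6 were treated across compound concentrations, with TGF-β3 as positive control. Chondrogenic nodule area per well was normalized to 3 DMSO wells on the same plate (fold over DMSO, 2–3 replicates). EC50, maximum activity and the dose reaching it were derived.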

The target in experiment [3] is CLK3 kinase (Homo sapiens, UniProt P49761). As to the kind of experiment: CLK3 kinase activity assay (Z-lyte FRET).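 Further: kinase activity read as coumarin/fluorescein emission ratio by FRET, unphosphorylated peptide as 0% and phosphorylated peptide as 100% control, values from non-linear regression of dose-response curves.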 In kind it is biochemical. The settings on record: Z-lyte Ser/Thr 18 peptide, 156 μM ATP, 1 h at room temperature.
In experiment [4] the target is CLK2 kinase (Homo sapiens, UniProt P49760). The experiment can be described thus: CLK2 kinase activity assay (Z-lyte FRET).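 Further: FRET read-out as coumarin to fluorescein emission ratio, unphosphorylated peptide as 0% and phosphorylated peptide as 100% controls, duplicate reactions, non-linear regression fit of dose-response curves.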 It is filed as biochemical. The settings on record: Z-lyte Ser/Thr 6 peptide, 60 μM ATP, 1 h at room temperature.

Where only a bound is given, the exact number is not on record here.

Sequence of CLK3 kinase (P49761 whole entry): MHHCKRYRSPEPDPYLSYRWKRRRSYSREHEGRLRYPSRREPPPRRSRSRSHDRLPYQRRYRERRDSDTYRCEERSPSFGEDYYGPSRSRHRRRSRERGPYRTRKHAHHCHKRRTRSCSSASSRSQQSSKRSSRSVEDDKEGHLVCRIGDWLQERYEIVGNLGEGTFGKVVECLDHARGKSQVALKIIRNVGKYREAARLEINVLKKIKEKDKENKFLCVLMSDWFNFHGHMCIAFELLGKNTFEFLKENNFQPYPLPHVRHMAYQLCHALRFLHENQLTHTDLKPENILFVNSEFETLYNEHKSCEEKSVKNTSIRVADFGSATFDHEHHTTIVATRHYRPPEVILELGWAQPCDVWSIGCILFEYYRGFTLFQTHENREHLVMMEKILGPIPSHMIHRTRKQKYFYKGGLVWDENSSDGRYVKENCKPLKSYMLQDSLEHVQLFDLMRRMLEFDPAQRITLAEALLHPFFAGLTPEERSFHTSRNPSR
Sequence of CLK2 kinase (P49760 whole entry): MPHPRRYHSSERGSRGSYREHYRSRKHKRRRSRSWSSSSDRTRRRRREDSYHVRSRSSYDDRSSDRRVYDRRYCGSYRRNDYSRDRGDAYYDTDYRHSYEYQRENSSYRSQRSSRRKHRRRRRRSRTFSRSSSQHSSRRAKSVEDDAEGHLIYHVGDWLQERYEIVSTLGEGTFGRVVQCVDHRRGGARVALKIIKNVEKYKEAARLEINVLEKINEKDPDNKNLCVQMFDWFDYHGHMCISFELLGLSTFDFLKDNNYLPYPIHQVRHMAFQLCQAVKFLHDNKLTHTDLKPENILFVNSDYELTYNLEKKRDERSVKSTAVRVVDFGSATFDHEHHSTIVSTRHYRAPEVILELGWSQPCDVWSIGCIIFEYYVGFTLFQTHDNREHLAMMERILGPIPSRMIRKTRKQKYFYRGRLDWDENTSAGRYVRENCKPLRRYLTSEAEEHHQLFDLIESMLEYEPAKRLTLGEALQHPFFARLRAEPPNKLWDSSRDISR

With `Cc1ccc(-c2cncc3[nH]c(-c4n[nH]c5cnc(-c6cncc(NC(=O)C7CCC7)c6)cc45)nc23)s1` [compound 277], the EC50 in experiment [1] came to 10.1 nM; in experiment [2], 100 nM; in experiment [3] it was 29 nM; in experiment [4] it was 6 nM. In addition, the Emax in experiment [2] came out at 231%.
For `Nc1cncc(-c2ccc3[nH]nc(-c4nc5c(-c6ccccc6F)cccc5[nH]4)c3n2)c1` [compound 166], in that order: 1070 nM, 30 nM, 209 nM, 3 nM and 81.8%.
For `O=C(Nc1cncc(-c2ccc3[nH]nc(-c4nc5c(-c6ccc(F)cc6)cncc5[nH]4)c3c2)c1)C1CCC1` [compound 164] the same measures were 5.7 nM, 100 nM, 87 nM, 28 nM and 203%.
For `Cc1ncc(-c2ccc3[nH]nc(-c4nc5c(-c6cccc(F)c6)cccc5[nH]4)c3n2)n1C` [compound 158] the same measures were 150 nM, 10 nM, 83 nM, 3 nM and 112%.
As for `c1cc(-c2ccoc2)c2cc(-c3n[nH]c4ccc(-c5cncc(CNCC6CCCC6)c5)nc34)[nH]c2c1` [compound 502], the results for the EC50 in experiment [1], in experiment [3] and in experiment [4] were 3640 nM, 336 nM and 14 nM, respectively. Also, the Emax in experiment [2] is 25.3%.
Regarding `Cc1ccc(-c2nccc3[nH]c(-c4n[nH]c5cnc(-c6cncc(N)c6)cc45)nc23)s1` [compound 273], the EC50 in experiment [1] was 9.2 nM; in experiment [2], 10 nM; in experiment [3], 29 nM; in experiment [4] it was 4 nM. The Emax in experiment [2] worked out at 259%.
For `Cc1cn(-c2ccnc3[nH]c(-c4n[nH]c5ccc(-c6cncc(NC(=O)C(C)(C)C)c6)nc45)nc23)cn1` [compound 223] the same measures were > 10000 nM, 10 nM, 123 nM, 3 nM and 70.2%.
On to `CCC(=O)Nc1cncc(-c2cc3c(-c4cc5c(-c6cccc(F)c6)nccc5[nH]4)n[nH]c3cn2)c1` [compound 306], for which the EC50 in experiment [1] was found to be 305 nM; in experiment [2], 30 nM; in experiment [3], 138 nM; in experiment [4], 8 nM. In experiment [2], the Emax is 50.8%.
For `CS(=O)(=O)NCc1cc(F)cc(-c2nccc3[nH]c(-c4n[nH]c5ccc(-c6cncc(CN7CCCCC7)c6)nc45)cc23)c1` [compound 536], the EC50 in experiment [1] was 1100 nM; in experiment [2] it was 10 nM; in experiment [3] it was 79 nM; in experiment [4], 5 nM. Further, the Emax in experiment [2] amounted to 50.1%.
As for `O=C(Nc1cncc(-c2ccc3[nH]nc(-c4cc5c(-c6cccnc6)cncc5[nH]4)c3c2)c1)C1CCCC1` [compound 356], the values for the EC50 in experiment [1], in experiment [3] and in experiment [4] were 1350 nM, 78 nM and 6 nM, respectively. Also, the Emax in experiment [2] worked out at 45.5%.
For `CC(C)CC(=O)Nc1cncc(-c2ccc3[nH]nc(-c4cc5c(-c6ccncc6)cncc5[nH]4)c3c2)c1` [compound 388], in that order: 875 nM, 29 nM, 4 nM and 70.2%.
Take `Nc1cncc(-c2ccc3[nH]nc(-c4nc5c(-c6ccccc6F)cncc5[nH]4)c3n2)c1` [compound 170]: the EC50 in experiment [1] was > 10000 nM; in experiment [2] it was 10 nM; in experiment [3] it was 12 nM; in experiment [4], 1 nM. Besides, the Emax in experiment [2] was 98.2%.
For `c1cncc(-c2ccc3[nH]nc(-c4cc5cccnc5[nH]4)c3n2)c1` [compound 414] the same measures were > 10000 nM, 10 nM, 1360 nM, 3 nM and 65.9%.
For `CC(C)CC(=O)Nc1cncc(-c2cc3c(-c4cc5c(-c6cccs6)nccc5[nH]4)n[nH]c3cn2)c1` [compound 506], in that order: 572 nM, 10 nM, 392 nM, 8 nM and 81.4%.
For `CN(C)Cc1cncc(-c2cnc3[nH]nc(-c4nc5c(-c6cccc(F)c6)cncc5[nH]4)c3c2)c1` [compound 137], in that order: 13 nM, 30 nM, 7 nM, 1 nM and 183%.
Consider `O=C(Nc1nc2c(-c3cccc(F)c3)cncc2[nH]1)c1n[nH]c2ccc(-c3cccnc3)cc12` [compound 119], for which the EC50 amounted to 6 nM in experiment [1], 100 nM in experiment [2], 48 nM in experiment [3] and 5 nM in experiment [4]. In addition, in experiment [2], the Emax was 157%.
For `CCCCC(=O)Nc1cncc(-c2cc3c(-c4cc5c(-c6cccnc6)ccnc5[nH]4)n[nH]c3cn2)c1` [compound 351] the same measures were > 10000 nM, 10 nM, 9840 nM, 4 nM and 52.8%.
With `O=C(Nc1cncc(-c2cnc3[nH]nc(-c4nc5c(-c6cccc(F)c6)cncc5[nH]4)c3c2)c1)C1CC1` [compound 126], the EC50 in experiment [1] was determined as 11 nM; in experiment [2], 10 nM; in experiment [3] it was 7330 nM; in experiment [4], 12 nM. In addition, in experiment [2], the Emax worked out at 148%.
For the compound `CCC(=O)Nc1cncc(-c2cnc3[nH]nc(-c4cc5c(-c6cccc(F)c6)cncc5[nH]4)c3c2)c1` [compound 305], the EC50 in experiment [1] amounted to 246 nM; in experiment [3] it was 33 nM; in experiment [4], 3 nM. Besides, the Emax in experiment [2] came to 113%.
On to `CN1CCN(c2ccnc3[nH]c(-c4n[nH]c5cnc(-c6cncc(CNCC7CCCC7)c6)cc45)cc23)CC1` [compound 489], for which the EC50 is > 10000 nM in experiment [1], 300 nM in experiment [2], 340 nM in experiment [3] and 19 nM in experiment [4]. Besides, the Emax in experiment [2] came out at 150%.
As for `CCC(=O)Nc1cncc(-c2ccc3[nH]nc(-c4nc5c(N6CCCCC6)ccnc5[nH]4)c3n2)c1` [compound 207], the values for the EC50 in experiment [1], in experiment [3] and in experiment [4] were > 10000 nM, 1290 nM and 3 nM, respectively. Further, in experiment [2], the Emax stood at 38.3%.
For `CN(C)Cc1cncc(-c2cc3c(-c4cc5c(N6CCN(C)CC6)nccc5[nH]4)n[nH]c3cn2)c1` [compound 491], the EC50 in experiment [1] was 3890 nM; in experiment [3], 1940 nM; in experiment [4], 20 nM. Also, the Emax in experiment [2] amounted to 13.9%.
For `CCCC(=O)Nc1cncc(-c2ccc3[nH]nc(-c4nc5c(-c6ccncc6)cncc5[nH]4)c3n2)c1` [compound 196] the same measures were 999 nM, 995 nM, 5 nM and 31%.
In the case of `O=C(Cc1ccccc1)Nc1cncc(-c2ccc3[nH]nc(-c4nc5c(-c6cccc(F)c6)cncc5[nH]4)c3c2)c1` [compound 129], the EC50 in experiment [1] was determined as 23 nM; in experiment [2], 100 nM; in experiment [3], 164 nM; in experiment [4], 53 nM. For the same compound, in experiment [2], the Emax was 124%.
For `CC(C)C(=O)Nc1cncc(-c2cc3c(-c4cc5c(-c6cccnc6)cccc5[nH]4)n[nH]c3cn2)c1` [compound 350], in that order: 275 nM, 10 nM, 1900 nM, 11 nM and 201%.
In the case of `O=C(Nc1cncc(-c2cc3c(-c4cc5cccnc5[nH]4)n[nH]c3cn2)c1)C1CC1` [compound 427], the EC50 is > 10000 nM in experiment [1], 9840 nM in experiment [3] and 9 nM in experiment [4]. Also, in experiment [2], the Emax is 17.7%.
For `Nc1cncc(-c2cc3c(-c4cc5c(N6CCCCC6)cncc5[nH]4)n[nH]c3cn2)c1` [compound 456], the EC50 came out at 2960 nM in experiment [1], 30 nM in experiment [2], 94 nM in experiment [3] and 2 nM in experiment [4]. Besides, the Emax in experiment [2] came out at 93.5%.
Consider `O=C(Nc1cncc(-c2cnc3[nH]nc(-c4nc5c(-c6cccnc6)cncc5[nH]4)c3c2)c1)C1CC1` [compound 190], for which the EC50 in experiment [1] amounted to 23.3 nM; in experiment [3] it was 39 nM; in experiment [4], 5 nM. The Emax in experiment [2] was 86.3%.
Turning to `CCC(=O)Nc1cncc(-c2ccc3[nH]nc(-c4cc5c(-c6cc(F)cc(CNS(C)(=O)=O)c6)cncc5[nH]4)c3c2)c1` [compound 517], the EC50 in experiment [1] stood at 244 nM; in experiment [3] it was 216 nM; in experiment [4] it was 8 nM. Further, in experiment [2], the Emax came out at 29.4%.
In the case of `O=C(Nc1cncc(-c2ccc3[nH]nc(-c4nc5c(-c6ccncc6)ccnc5[nH]4)c3n2)c1)C1CCCCC1` [compound 198], the EC50 is 999 nM in experiment [1], 10 nM in experiment [2], 984 nM in experiment [3] and 11 nM in experiment [4]. The Emax in experiment [2] was 68.6%.
For `CC(C)C(=O)Nc1cncc(-c2ccc3[nH]nc(-c4nc5c(-c6ccccc6F)cncc5[nH]4)c3n2)c1` [compound 174], in that order: > 10000 nM, 10 nM, 9840 nM, 4 nM and 181%.
